The values that follow come from the supplement of paper PMC11061612.

What all share (test): Bliss excess, mean over the matrix (fraction); higher = more synergy
The subject of assay [1] is CAL-33 (Oral Cavity Carcinoma). The method, boiled down: (§1)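 Cell lines in DMEM/F12 or RPMI with 10% FBS were plated in 1536-well plates, held 24 hours at 37°C, 5% CO2, then given two-drug dose matrices for 72 hours (DMSO typically 0.2%). Viability was read by CellTiter-Glo 2.0 luminescence and scaled as inhibition from 0 (vehicle wells) to 1 (blank wells). Combination Emax is the second-highest inhibition in the matrix; Bliss excess is observed combination effect minus expected EA + EB − EA·EB, EA and EB being single-agent effects.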

In assay [2] the test system is YAPC (Pancreatic Carcinoma). The method, boiled down:
as §1

Assay [3] deals with LCLC-97TM1 (Non-Small Cell Lung Carcinoma). Put shortly: as §1
The test system of assay [4] is HuH-7 (Hepatocellular Carcinoma). The method, boiled down:
as §1

Assay [5] relates to EW-11 (Ewing's Sarcoma). Put shortly: as §1
In assay [6] the test system is OE21 (Esophageal Squamous Cell Carcinoma). The method, boiled down:
as §1

For assay [7], the system named is NCI-H2722 (Mesothelioma). Put shortly:
as §1

Assay [8] has as its system NCI-H1568 (Lung Adenocarcinoma). The method, boiled down:
as §1

The test system of assay [9] is ESS-1 (Other Solid Carcinomas). Put shortly: as §1
The test system of assay [10] is Detroit562 (Head and Neck Carcinoma). Put shortly: as §1
Assay [11] has as its system NCI-H524 (Small Cell Lung Carcinoma). Put shortly: as §1
Assay [12] has as its system ALL-PO (B-Lymphoblastic Leukemia). The method, boiled down: as §1
The subject of assay [13] is BE2-M17 (Neuroblastoma). The method, boiled down: as §1
Assay [14] deals with A673 (Ewing's Sarcoma). Put shortly:
as §1

Assay [15] concerns CAL-72 (Osteosarcoma). The method, boiled down:
as §1

Assay [16] deals with TGBC1TKB (Biliary Tract Carcinoma). Put shortly:
as §1

Assay [17] deals with WSU-NHL (B-Cell Non-Hodgkin's Lymphoma). Put shortly: as §1
The test system of assay [18] is BPH-1 (Non-Cancerous). Put shortly:
as §1

For assay [19], the system named is KS-1 (Glioblastoma). Put shortly: as §1
The subject of assay [20] is Hs-746T (Gastric Carcinoma). The method, boiled down: as §1

Turning to `CCN(CCO)CCCOc1ccc2c(Nc3cc(CC(=O)Nc4cccc(F)c4)[nH]n3)ncnc2c1` [AZD2811] + O=C(c1cc(Cc2n[nH]c(=O)c3ccccc23)ccc1F)N1CCN(C(=O)C2CC2)CC1 [Olaparib] (first compound max 1 µM, 7x7, partner max 10 µM), the Bliss excess in [1] was 0.0044; in assay [2], -0.0124; in [3] it was 0.0148; in [4], -0.072; in assay [5], 0.0191; in [6], 0.0043. The Bliss excess is -0.016 in assay [7]; -0.0472 in assay [8]; 0.021 in assay [9]; 0.0133 in assay [10]; -0.0602 in [11]; 0.0133 in assay [12]. Also, the Bliss excess in assay [13] is 0.0317; in assay [14] it was -0.0906; in assay [15], 0.0343; in [16] it was -0.0368; in [17], -0.0841; in [18] it was 0.0466. Moreover, the Bliss excess is 0.0053 in assay [19] and -0.0553 in assay [20].

For the compound `Cc1c2c(nn1C)CSCc1cc(n(C)n1)CSc1cc(c3ccccc3c1)OCCCc1c(C(=O)O)n(C)c3c-2c(Cl)ccc13` [AZD5991] + C[C@@H]1COCCN1C2=NC(=NC(=C2)C3(CC3)[S@](=N)(=O)C)C4=C5C=CNC5=NC=C4 [AZD6738] (first compound max 1 µM, 7x7, partner max 10 µM), the Bliss excess in assay [1] is 0.0008; in assay [2] it was 0.0715; in assay [3], 0.0401; in assay [4], -0.0057; in assay [5] it was 0.0217; in [6] it was 0.0157. Moreover, the Bliss excess in assay [7] is 0.0224; in [8], 0.0409; in assay [9], -0.0451; in [10], 0.0364; in [11], -0.0395; in assay [12], 0.0236. Further, the Bliss excess is 0.0574 in assay [13]; 0.0077 in assay [14]; 0.0213 in [15]; 0.0537 in assay [16]; -0.0352 in assay [17]; 0.0039 in assay [18]. Besides, the Bliss excess in [19] was found to be 0.0147; in [20], 0.0423.

For the compound `CCN(CCO)CCCOc1ccc2c(Nc3cc(CC(=O)Nc4cccc(F)c4)[nH]n3)ncnc2c1` [AZD2811] + C=CCn1c(=O)c2cnc(Nc3ccc(N4CCN(C)CC4)cc3)nc2n1-c1cccc(C(C)(C)O)n1 [AZD1775] (first compound max 1 µM, partner max 1 µM), the Bliss excess in assay [1] is -0.0365; in assay [2] it was -0.0392; in assay [3], 0.033; in [4], -0.0232; in assay [5], 0.0003; in assay [6] it was -0.0577. In addition, the Bliss excess in assay [7] was 0.023; in [8], -0.0301; in [9], 0.042; in assay [10], 0.05; in assay [11], -0.0253; in assay [12], 0.0382. The Bliss excess was 0.0436 in [13]; -0.0838 in [14]; -0.0866 in assay [15]; -0.0195 in [16]; -0.0761 in [17]; -0.0007 in assay [18]. Moreover, the Bliss excess was determined as 0.0223 in assay [19] and 0.0312 in assay [20].

Consider `Cn1cnc2c(F)c(Nc3ccc(Br)cc3Cl)c(C(=O)NOCCO)cc21` [Selumetinib] + C[C@@H]1COCCN1C2=NC(=NC(=C2)C3(CC3)[S@](=N)(=O)C)C4=C5C=CNC5=NC=C4 [AZD6738] (first compound max 10 µM, 7x7, partner max 10 µM), for which the Bliss excess is 0.0115 in [1]; -0.0019 in assay [2]; -0.0043 in assay [3]; -0.0221 in assay [4]; -0.0605 in assay [5]; 0.0134 in assay [6]. Besides, the Bliss excess in assay [7] is -0.0455; in assay [8], -0.0261; in assay [9], 0.024; in assay [10], -0.0438; in assay [11], -0.0293; in [12], 0.0391. The Bliss excess was 0.0348 in assay [13]; -0.0537 in [14]; -0.0387 in [15]; -0.0031 in assay [16]; -0.0042 in assay [17]; 0.108 in [18]. Moreover, the Bliss excess in [19] was -0.0315; in [20], 0.0382.

In the case of `COc1nnc2ccc(N3CCC(c4ccc(OCCN5CCN(C)C(=O)[C@H]5C)cc4)CC3)nn12` [AZD5153] + Cc1c2c(nn1C)CSCc1cc(n(C)n1)CSc1cc(c3ccccc3c1)OCCCc1c(C(=O)O)n(C)c3c-2c(Cl)ccc13 [AZD5991] (first compound max 1 µM, 7x7, partner max 1 µM), the Bliss excess was 0.0009 in [1]; -0.0355 in assay [2]; -0.017 in [3]; 0.0546 in [4]; 0.111 in assay [5]; -0.0089 in [6]. The Bliss excess in assay [7] was -0.016; in assay [8], -0.0309; in [9], 0.0032; in assay [10], -0.0459; in assay [11] it was 0.0723; in assay [12] it was 0.0091. Besides, the Bliss excess is 0.0101 in assay [13]; 0.0041 in [14]; 0.0287 in assay [15]; 0.0069 in [16]; 0.01 in assay [17]; -0.0093 in assay [18]. Besides, the Bliss excess in [19] was -0.0479; in [20], -0.0244.

With `COc1cccc(OCCCN)c1-c1cc(Nc2cnc(C#N)cn2)n[nH]1` [Prexasertib] + CN(C)CCCOc1ccc(-c2ccc3ncc4c(c3c2)n(C2CCOCC2)c(=O)n4C)cn1 [AZD0156] (first compound max 1 µM, 7x7, partner max 1 µM), the Bliss excess in assay [1] is -0.0018; in assay [2], -0.0799; in assay [3], -0.0439; in [4], -0.0335; in [5] it was -0.0705; in assay [6] it was -0.0949. For the same compound, the Bliss excess in assay [7] is 0.0073; in assay [8], -0.032; in assay [9], -0.0668; in assay [10], -0.014; in [11], -0.0435; in assay [12], 0.0036. Also, the Bliss excess in assay [13] was -0.0185; in [14] it was 0.0133; in assay [15], -0.0922; in assay [16], -0.0053; in [17], -0.0066; in assay [18], 0.0118. Besides, the Bliss excess was -0.0131 in assay [19] and -0.0078 in [20].

For the compound `COc1nnc2ccc(N3CCC(c4ccc(OCCN5CCN(C)C(=O)[C@H]5C)cc4)CC3)nn12` [AZD5153] + C=CCn1c(=O)c2cnc(Nc3ccc(N4CCN(C)CC4)cc3)nc2n1-c1cccc(C(C)(C)O)n1 [AZD1775] (first compound max 1 µM, partner max 1 µM), the Bliss excess in assay [1] is -0.0757; in [2], -0.0403; in assay [3], -0.0845; in assay [4], 0.0129; in assay [5], -0.0976; in assay [6], -0.0497. The Bliss excess in [7] is 0.0139; in assay [8], -0.102; in assay [9], -0.0749; in assay [10], -0.0535; in assay [11] it was -0.0337; in [12], -0.0198. Also, the Bliss excess was 0.0026 in assay [13]; -0.055 in [14]; -0.0524 in assay [15]; 0.015 in assay [16]; -0.0255 in assay [17]; 0.0246 in [18]. The figures for the Bliss excess in assay [19] and in assay [20] were -0.0308 and -0.0556, respectively.
